Holding throughout (test): Colorimetric ALA release activity assay, hemin inhibition of holoenzyme
Common to all, as to type: biochemical

Assay [1] has as its target T1, holoALAS2 Cys-mut (C70A/C555A/C558A) (Homo sapiens, UniProt P22557, C555A/C558A/C70A).
T1 construct: Site-directed mutagenesis was performed on the mature ALAS2 (residues 54–587) construct to generate truncations and cysteine mutants; His6-SUMO (N, cleaved yes); made in house; host or cells: Escherichia coli BL21-Codon Plus (DE3)-RIL
T1 sequence (P22557 54-587 C70A/C555A/C558A): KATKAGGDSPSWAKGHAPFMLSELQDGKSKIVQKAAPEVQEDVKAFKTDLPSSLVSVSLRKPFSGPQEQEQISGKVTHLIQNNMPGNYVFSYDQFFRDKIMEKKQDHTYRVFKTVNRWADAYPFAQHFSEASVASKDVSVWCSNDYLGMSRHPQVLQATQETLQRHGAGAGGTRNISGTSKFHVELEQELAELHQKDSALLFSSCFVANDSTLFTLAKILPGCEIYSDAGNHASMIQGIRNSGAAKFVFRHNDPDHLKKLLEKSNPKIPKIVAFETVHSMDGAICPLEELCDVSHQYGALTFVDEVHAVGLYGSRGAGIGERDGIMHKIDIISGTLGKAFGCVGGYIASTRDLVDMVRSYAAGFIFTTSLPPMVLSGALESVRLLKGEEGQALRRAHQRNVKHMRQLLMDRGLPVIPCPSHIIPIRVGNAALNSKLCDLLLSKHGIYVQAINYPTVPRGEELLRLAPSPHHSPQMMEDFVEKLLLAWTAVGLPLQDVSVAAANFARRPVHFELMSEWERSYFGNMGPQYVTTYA
The following applies: 0.1 μM–60 μM hemin titrated into holoenzyme. As to the method: (§1) A discontinuous colorimetric activity assay adapted from Shoolingin-Jordan et al. and Bailey et al. was used to measure the enzyme activity ([48], [74]). The reaction was initiated by adding 100 nM purified enzyme to 50 mM potassium phosphate, pH 7.0, 10 mM MgCl2, 1 mM DTT, 100 mM glycine, and 300 μM succinyl-CoA (175 μl total). The reaction was incubated at 37 °C for 15 min and terminated with 100 μl of cold 10% trichloroacetic acid. The precipitated protein was removed by centrifugation for 5 min at 13,000g, and 240 μl of the supernatant was mixed with 240 μl of 1 M sodium acetate, pH 4.6. To derivatize ALA, 20 μl of acetylacetone was added to the mixture and boiled at 100 °C for 10 min. After the sample was cooled for 20 min, 100 μl aliquots were transferred into a clear 96-well plate in triplicate. An equal volume of Ehrlich’s reagent (p-Dimethylaminobenzaldehyde, DMAB) was added to each well, and the absorbance was monitored at 553 nm using a microplate reader (Thermo Fisher Scientific). The peak absorbance value was converted to molar ALA concentration using ε553 = 60,400 M^−1 cm^−1.
(§2) Inhibition of enzyme activity was determined by titrating hemin (0.1 μM–60 μM) into the substrate mixture before initiating the reaction upon enzyme addition. Hemin was dissolved in 100% dimethyl sulfoxide (DMSO) (ε403 nm = 170,000 M^−1 cm^−1) and serially diluted in 100% DMSO to prepare stock solutions for each concentration. The final DMSO concentration in the reaction mixture was 2%. All experiments were performed with a minimum of three biological replicates, each with three technical replicates. Data were fitted using nonlinear regression to generate an inhibitor dose-response curve (IC50) or an agonist dose-response curve (EC50), and statistical significance was determined using a one-way ANOVA with GraphPad Prism 10.

Assay [2] deals with T2, holoALAS2 ΔC (residues 54–547) (Homo sapiens, UniProt P22557).
T2 construct: a truncation without the C-terminal CXXC motif (ΔC, residues 54–547); His6-SUMO (N, cleaved yes); made in house; host or cells: Escherichia coli BL21-Codon Plus (DE3)-RIL
T2 sequence (P22557 54-547): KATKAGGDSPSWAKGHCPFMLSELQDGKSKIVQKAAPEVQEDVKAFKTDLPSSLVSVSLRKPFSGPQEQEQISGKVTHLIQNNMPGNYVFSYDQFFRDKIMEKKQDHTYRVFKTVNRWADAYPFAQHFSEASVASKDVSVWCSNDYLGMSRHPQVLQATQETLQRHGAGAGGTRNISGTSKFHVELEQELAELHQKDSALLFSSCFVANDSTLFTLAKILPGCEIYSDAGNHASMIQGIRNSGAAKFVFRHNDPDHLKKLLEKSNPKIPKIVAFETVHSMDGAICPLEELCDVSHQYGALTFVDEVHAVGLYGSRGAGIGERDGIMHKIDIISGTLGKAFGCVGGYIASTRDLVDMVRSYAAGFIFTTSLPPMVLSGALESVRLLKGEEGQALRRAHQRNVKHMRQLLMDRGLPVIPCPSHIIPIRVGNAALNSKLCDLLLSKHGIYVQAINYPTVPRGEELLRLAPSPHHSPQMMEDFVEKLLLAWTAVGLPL
As to the method:
as §1, §2

Assay [3] deals with T3, WT holoALAS2 (residues 54–587) (Homo sapiens, UniProt P22557).
T3 construct: His6-SUMO (N, cleaved yes); made in house; host or cells: Escherichia coli BL21-Codon Plus (DE3)-RIL
T3 sequence (P22557 54-587): T1 sequence (P22557 54-587 C70A/C555A/C558A) with A17C, A502C, A505C
The following applies: 0.1 μM–60 μM hemin titrated into holoALAS2, rate of ALA release. As for the experimental part: as §1, §2

Residue numbers refer to the chain shown, from its start.

As usually defined, the IC50 is the concentration needed to halve the response being measured. A high value points to weaker potency.

In the case of ferric chloride heme [hemin], the IC50 worked out at 24.8 ± 0.5 µM in assay [1], 31.3 ± 0.8 µM in assay [2] (0.1 μM–60 μM hemin titrated into holoenzyme) and 18.7 ± 0.5 µM in assay [3]. Moreover, in assay [2] (100-fold excess heme), the “residual enzyme activity, of basal activity” value is on record as ~25%.

The values are drawn from article PMC12856317, “A reversible feedback mechanism regulating mitochondrial heme synthesis” (The Journal of Biological Chemistry, 2025).
